Measurements taken from patent US8802597B2, “Herbicidal pyrimidines” (E I du Pont de Nemours and Company, priority 2003, dated 2014).

How the values were obtained:
Assay in all cases: Test C pre/postemergence
Type in all cases: in vivo
soybean (Glycine max) = conditions: for Plant response rating, Soybean: Preemergence, scale 0 to 100, 0 no effect, 100 complete control
Outline: (§1)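 Greenhouse herbicide screen, visual readout. Compound in solvent/surfactant applied preemergence at planting or postemergence to 1- to 4-leaf plants; assessed at 12–14 days on a 0–100 control scale.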

[1] = tested on: pigweed (Amaranthus retroflexus); conditions: for Plant response rating, Pigweed: Preemergence, scale 0 to 100, 0 no effect, 100 complete control
Outline: as §1

[2] = tested on: giant foxtail (Setaria faberii); conditions: for Plant response rating, Foxtail, Giant: Preemergence
Outline: as §1

[3] = tested on: Surinam grass (Brachiaria decumbens); conditions: for Plant response rating (scale of 0 to 100), Surinam Grass: Postemergence; for Plant response rating, Surinam Grass: Preemergence, scale 0 to 100, 0 no effect, 100 complete control
Outline: as §1

[4] = tested on: morningglory (Ipomoea coccinea); conditions: for Plant response rating, Morningglory: Preemergence
Outline: as §1

[5] = tested on: common (oilseed) sunflower (Helianthus annuus); conditions: Preemergence, scale 0 to 100, 0 no effect, 100 complete control
Outline: as §1

[6] = tested on: johnsongrass (Sorghum halepense); conditions: for Plant response rating, Johnsongrass: Preemergence
Outline: as §1

[7] = tested on: bermudagrass (Cynodon dactylon); conditions: for Plant response rating (scale of 0 to 100), Bermudagrass / Bermudagrass plant response rating: Postemergence; for Bermudagrass plant response rating: scale 0 to 100 (0 no effect, 100 complete control); for Plant response rating, Bermudagrass: Preemergence
Outline: as §1

kochia (Kochia scoparia) = conditions: for Plant response rating, Kochia: Preemergence
Outline: as §1

[8] = tested on: goosegrass (Eleusine indica); conditions: for Plant response rating, Goosegrass: Preemergence
Outline: as §1

[9] = tested on: crabgrass (Digitaria sanguinalis); conditions: for Plant response rating, Crabgrass: Preemergence
Outline: as §1

[10] = tested on: woolly cupgrass (Eriochloa villosa); conditions: for Plant response rating, Cupgrass, Woolly: Preemergence
Outline: as §1

[11] = Postemergence, 125 g ai/ha, scale 0 to 100 (0 no effect, 100 complete control)
[12] = 16 g ai/ha, scale 0 to 100, 0 no effect, 100 complete control
[13] = 31 g ai/ha, scale 0 to 100, 0 no effect, 100 complete control
[14] = 62 g ai/ha, scale 0 to 100, 0 no effect, 100 complete control

In the case of CCCCOC(=O)c1nc(C2CC2)nc(N)c1Cl [Compound 76], the “Plant response rating (scale of 0 to 100), Soybean” value (soybean (Glycine max); Postemergence, 16 g ai/ha) is reported as 95, the “Plant response rating (scale of 0 to 100), Soybean” value (soybean (Glycine max); Postemergence, 31 g ai/ha) is reported as 95 and the “Plant response rating (scale of 0 to 100), Soybean” value (soybean (Glycine max); Postemergence, 62 g ai/ha) is reported as 95. For the same compound, the “Soybean plant response rating” value (soybean (Glycine max); [11]) was 100, the “Plant response rating, Soybean” value (soybean (Glycine max); 16 g ai/ha) was 50 and the “Plant response rating, Soybean” value (soybean (Glycine max); 31 g ai/ha) was 70. For the same compound, the “Plant response rating, Soybean” value (soybean (Glycine max); 62 g ai/ha) was 95, the “Plant response rating (scale of 0 to 100), Pigweed” value ([1]; Postemergence, 16 g ai/ha) was 85 and the “Plant response rating (scale of 0 to 100), Pigweed” value ([1]; Postemergence, 31 g ai/ha) was 95. For the same compound, the “Plant response rating (scale of 0 to 100), Pigweed” value ([1]; Postemergence, 62 g ai/ha) was 100, the “Pigweed plant response rating” value [1, 11] was 100 and the “Plant response rating, Pigweed” value ([1]; 16 g ai/ha) was 60. The “Plant response rating, Pigweed” value ([1]; 31 g ai/ha) was 80, the “Plant response rating, Pigweed” value ([1]; 62 g ai/ha) was 80 and the “Plant response rating (scale of 0 to 100), Foxtail, Giant” value ([2]; Postemergence, 16 g ai/ha) was 15. The “Plant response rating (scale of 0 to 100), Foxtail, Giant” value ([2]; Postemergence, 31 g ai/ha) was 25, the “Plant response rating (scale of 0 to 100), Foxtail, Giant” value ([2]; Postemergence, 62 g ai/ha) was 55 and the “Foxtail, Giant plant response rating” value [2, 11] was 85. For the same compound, the “Plant response rating, Foxtail, Giant” value [2, 12] was 0, the “Plant response rating, Foxtail, Giant” value [2, 13] was 0 and the “Plant response rating, Foxtail, Giant” value [2, 14] was 0. The “Plant response rating, Foxtail, Giant” value ([2]; 125 g ai/ha, scale 0 to 100) was 10, the “Plant response rating (scale of 0 to 100), Surinam Grass” value ([3]; 16 g ai/ha) was 60 and the “Plant response rating (scale of 0 to 100), Surinam Grass” value ([3]; 31 g ai/ha) was 70. The “Plant response rating (scale of 0 to 100), Surinam Grass” value ([3]; 62 g ai/ha) was 95, the “Plant response rating, Surinam Grass” value ([3]; 16 g ai/ha) was 0 and the “Plant response rating, Surinam Grass” value ([3]; 31 g ai/ha) was 0. The “Plant response rating, Surinam Grass” value ([3]; 62 g ai/ha) was 0, the “Plant response rating (scale of 0 to 100), Morningglory” value ([4]; Postemergence, 16 g ai/ha) was 95 and the “Plant response rating (scale of 0 to 100), Morningglory” value ([4]; Postemergence, 31 g ai/ha) was 95. For the same compound, the “Plant response rating (scale of 0 to 100), Morningglory” value ([4]; Postemergence, 62 g ai/ha) was 95, the “Morningglory plant response rating” value [4, 11] was 100 and the “Plant response rating, Morningglory” value [4, 12] was 40. For the same compound, the “Plant response rating, Morningglory” value [4, 13] was 60, the “Plant response rating, Morningglory” value [4, 14] was 100 and the “Plant response rating, Morningglory” value ([4]; 125 g ai/ha, scale 0 to 100) was 100. The “Plant response rating, Sunflower” value ([5]; 16 g ai/ha) was 50, the “Plant response rating, Sunflower” value ([5]; 31 g ai/ha) was 85 and the “Plant response rating, Sunflower” value ([5]; 62 g ai/ha) was 100. For the same compound, the “Plant response rating (scale of 0 to 100), Johnsongrass” value ([6]; Postemergence, 16 g ai/ha) was 25, the “Plant response rating (scale of 0 to 100), Johnsongrass” value ([6]; Postemergence, 31 g ai/ha) was 65 and the “Johnsongrass plant response rating” value [6, 11] was 95. The “Plant response rating, Johnsongrass” value [6, 12] was 0, the “Plant response rating, Johnsongrass” value [6, 13] was 0 and the “Plant response rating, Johnsongrass” value [6, 14] was 20. The “Plant response rating, Johnsongrass” value ([6]; 125 g ai/ha, scale 0 to 100) was 50, the “Plant response rating (scale of 0 to 100), Bermudagrass” value ([7]; 16 g ai/ha) was 15 and the “Plant response rating (scale of 0 to 100), Bermudagrass” value ([7]; 31 g ai/ha) was 70. The “Bermudagrass plant response rating” value ([7]; 62 g ai/ha) was 75, the “Bermudagrass plant response rating” value ([7]; 125 g ai/ha) was 75 and the “Plant response rating, Bermudagrass” value [7, 12] was 0. For the same compound, the “Plant response rating, Bermudagrass” value [7, 13] was 0, the “Plant response rating, Bermudagrass” value [7, 14] was 0 and the “Plant response rating, Bermudagrass” value ([7]; 125 g ai/ha, scale 0 to 100) was 0. The “Plant response rating (scale of 0 to 100), Kochia” value (kochia (Kochia scoparia); Postemergence, 16 g ai/ha) was 90, the “Plant response rating (scale of 0 to 100), Kochia” value (kochia (Kochia scoparia); Postemergence, 31 g ai/ha) was 95 and the “Plant response rating (scale of 0 to 100), Kochia” value (kochia (Kochia scoparia); Postemergence, 62 g ai/ha) was 95. For the same compound, the “Kochia plant response rating” value (kochia (Kochia scoparia); [11]) was 100, the “Plant response rating, Kochia” value (kochia (Kochia scoparia); [12]) was 70 and the “Plant response rating, Kochia” value (kochia (Kochia scoparia); [13]) was 90. For the same compound, the “Plant response rating, Kochia” value (kochia (Kochia scoparia); [14]) was 95, the “Plant response rating, Kochia” value (kochia (Kochia scoparia); 125 g ai/ha, scale 0 to 100) was 100 and the “Plant response rating (scale of 0 to 100), Goosegrass” value ([8]; Postemergence, 16 g ai/ha) was 30. For the same compound, the “Plant response rating (scale of 0 to 100), Goosegrass” value ([8]; Postemergence, 31 g ai/ha) was 45, the “Plant response rating (scale of 0 to 100), Goosegrass” value ([8]; Postemergence, 62 g ai/ha) was 45 and the “Goosegrass plant response rating” value [8, 11] was 50. The “Plant response rating, Goosegrass” value [8, 12] was 0, the “Plant response rating, Goosegrass” value [8, 13] was 0 and the “Plant response rating, Goosegrass” value [8, 14] was 0. For the same compound, the “Plant response rating, Goosegrass” value ([8]; 125 g ai/ha, scale 0 to 100) was 0, the “Plant response rating (scale of 0 to 100), Crabgrass” value ([9]; Postemergence, 16 g ai/ha) was 55 and the “Plant response rating (scale of 0 to 100), Crabgrass” value ([9]; Postemergence, 31 g ai/ha) was 75. For the same compound, the “Plant response rating (scale of 0 to 100), Crabgrass” value ([9]; Postemergence, 62 g ai/ha) was 85, the “Crabgrass plant response rating” value [9, 11] was 90 and the “Plant response rating, Crabgrass” value [9, 12] was 0. The “Plant response rating, Crabgrass” value [9, 13] was 0, the “Plant response rating, Crabgrass” value [9, 14] was 5 and the “Plant response rating, Crabgrass” value ([9]; 125 g ai/ha, scale 0 to 100) was 60. The “Plant response rating (scale of 0 to 100), Cupgrass, Woolly” value ([10]; Postemergence, 16 g ai/ha) was 55, the “Plant response rating (scale of 0 to 100), Cupgrass, Woolly” value ([10]; Postemergence, 31 g ai/ha) was 60 and the “Plant response rating (scale of 0 to 100), Cupgrass, Woolly” value ([10]; Postemergence, 62 g ai/ha) was 80. The “Cupgrass, Woolly plant response rating” value [10, 11] was 95, the “Plant response rating, Cupgrass, Woolly” value [10, 12] was 0 and the “Plant response rating, Cupgrass, Woolly” value [10, 13] was 0. For the same compound, the “Plant response rating, Cupgrass, Woolly” value [10, 14] was 20 and the “Plant response rating, Cupgrass, Woolly” value ([10]; 125 g ai/ha, scale 0 to 100) was 50.
